Data published in DBAASP.
≈ marks a conversion by molar mass, not a printed value.

Key:
Assay in all cases: ≥ marks a high value that may be exact or a test limit, other limits are often not marked, values filed in µg/mL are converted to µM
[1] = system: Escherichia coli W3110
[2] = system: Klebsiella pneumoniae ATCC BAA-1705
[3] = system: Acinetobacter baumannii ATCC 19606
[4] = system: Escherichia coli ATCC 25922
[5] = system: Klebsiella pneumoniae ATCC 700603
[6] = system: Klebsiella pneumoniae ATCC BAA-2146
[7] = system: Pseudomonas aeruginosa ATCC 27853
[8] = system: Pseudomonas aeruginosa FADDI-PA070
[9] = system: Staphylococcus aureus ATCC 43300
[10] = system: Staphylococcus aureus NRS 17
[11] = system: Staphylococcus aureus NRS 1
[12] = system: Staphylococcus aureus VRSA10
[13] = system: Staphylococcus aureus VRSA1
[14] = system: Streptococcus pneumoniae ATCC 700677
[15] = system: Candida albicans ATCC 90028
[16] = system: Enterococcus faecium ATCC 29212
[17] = system: Escherichia coli O157:H7 ATCC 43895
[18] = system: Malassezia furfur KCTC 7744
[19] = system: Staphylococcus aureus ATCC 25923
[20] = system: Streptococcus mutans KCTC 3065
[21] = system: Trichosporon beigelii KCTC 7707
[22] = system: Vibrio vulnificus ATCC 29307
[23] = system: Candida krusei ATCC 6258
[24] = system: Enterococcus faecalis ATCC 29212
[25] = system: Escherichia coli ATCC 12795
[26] = system: Klebsiella pneumoniae ATCC 10031
[27] = system: Mannheimia haemolytica 82-25
[28] = system: Pseudomonas aeruginosa ATCC 27312
[29] = system: Serratia marcescens ATCC 14756
[30] = system: Staphylococcus aureus ATCC 29213
[31] = system: Bacillus cereus ATCC 1015
[32] = system: Leuconostoc mesenteroides ATCC 1059
[33] = system: Staphylococcus aureus MR
[34] = system: Staphylococcus epidermidis ATCC 1114
[35] = system: Escherichia coli ATCC 35218
[36] = system: Listeria monocytogenes
[37] = system: Pseudomonas aeruginosa PAO1
[38] = system: Pseudomonas aeruginosa RP73
[39] = system: Salmonella enterica subsp. enterica serovar Enteritidis 706 RIVM
[40] = system: Salmonella enterica subsp. enterica serovar Typhimurium ATCC 14028
[41] = system: Staphylococcus aureus ATCC 6538P
[42] = system: Staphylococcus aureus WKZ2
[43] = system: Escherichia coli ATCC 9723H
[44] = system: Escherichia coli NDM
[45] = system: Pseudomonas aeruginosa ATCC 10148
[46] = system: Streptococcus pyogenes

## CC[C@H](C)[C@H](N)C(=O)N[C@@H](Cc1c[nH]c2ccccc12)C(=O)N[C@@H](Cc1c[nH]c2ccccc12)C(=O)N[C@@H](C)C(=O)N[C@@H](CCCCN)C(=O)N[C@@H](Cc1c[nH]c2ccccc12)C(=O)NCC(=O)N[C@@H](CC(C)C)C(=O)N[C@@H](CCCCN)C(=O)N[C@@H](CC(C)C)C(=O)N[C@@H](CC(C)C)C(=O)N[C@@H](CC(=O)O)C(=O)N[C@@H](Cc1ccc(O)cc1)C(=O)N[C@@H](CCCN=C(N)N)C(=O)N[C@@H](CCCN=C(N)N)C(=O)N[C@H](C(=O)N[C@@H](Cc1c[nH]c2ccccc12)C(=O)O)[C@@H](C)CC [IWWAKWGLKLLDYRRIW]
[1]
  MIC: 8 µM (≈ 18.4 µg/mL)
[2]
  MIC: ≥ 128 µM

## CC[C@H](C)[C@H](NC(=O)[C@@H](N)CC(C)C)C(=O)NCC(=O)N[C@@H](CC(C)C)C(=O)N[C@H](C(=O)N[C@@H](CO)C(=O)N[C@@H](CCCCN)C(=O)NCC(=O)N[C@H](C(=O)N[C@@H](CO)C(=O)N[C@H](C(=O)N[C@@H](CC(C)C)C(=O)N[C@H](C(=O)N[C@@H](CCCCN)C(=O)N[C@H](C(=O)N[C@H](C(=O)N[C@@H](CO)C(=O)N[C@@H](CCCCN)C(=O)N[C@@H](CCCCN)C(=O)N[C@H](C(=O)N[C@@H](CC(C)C)C(=O)N[C@@H](CCCCN)C(=O)N[C@@H](CCC(N)=O)C(N)=O)C(C)C)C(C)C)[C@@H](C)O)C(C)C)C(C)C)[C@@H](C)O)C(C)C [LIGLVSKGTSVLVKTVSKKVLKQ]
[3]
  MIC: > 9.6 µM
[4]
  MIC: > 9.6 µM
[5]
  MIC: > 9.6 µM
[6]
  MIC: 9.6 µM (≈ 23.3 µg/mL)
[7]
  MIC: > 9.6 µM
[8]
  MIC: 9.6 µM (≈ 23.3 µg/mL)
[9]
  MIC: > 9.6 µM
[10]
  MIC: 9.6 µM (≈ 23.3 µg/mL)
[11]
  MIC: 9.6 µM (≈ 23.3 µg/mL)
[12]
  MIC: 9.6 µM (≈ 23.3 µg/mL)
[13]
  MIC: 9.6 µM (≈ 23.3 µg/mL)
[14]
  MIC: 9.6 µM (≈ 23.3 µg/mL)

## CSCC[C@H](NC(=O)CNC(=O)[C@H](C)NC(=O)[C@H](C)N)C(=O)NCC(=O)N[C@@H](Cc1ccccc1)C(=O)N[C@@H](Cc1ccccc1)C(=O)NCC(=O)N[C@@H](C)C(=O)N[C@@H](CCCN=C(N)N)C(N)=O [AAGMGFFGAR]
[15]
  MIC: 25.4 µM (≈ 25 µg/mL)
[16]
  MIC: 25.4 µM (≈ 25 µg/mL)
[17]
  MIC: 12.7 µM (≈ 12.5 µg/mL)
[18]
  MIC: ≥ 50.9 µM
[7]
  MIC: 12.7 µM (≈ 12.5 µg/mL)
[19]
  MIC: 25.4 µM (≈ 25 µg/mL)
[20]
  MIC: 12.7 µM (≈ 12.5 µg/mL)
[21]
  MIC: 12.7 µM (≈ 12.5 µg/mL)
[22]
  MIC: 25.4 µM (≈ 25 µg/mL)

## N[C@@H](CC(=O)O)C(=O)N[C@@H](CC(=O)O)C(=O)N[C@@H](CC(=O)O)C(=O)N[C@@H](CC(=O)O)C(=O)N[C@@H](CC(=O)O)C(=O)N[C@@H](CC(=O)O)C(=O)N[C@@H](CC(=O)O)C(=O)O [DDDDDDD]
[23]
  MIC: ≥ 3190 µM
[24]
  MIC: 1160 µM (≈ 955 µg/mL)
[25]
  MIC: ≥ 570 µM
[26]
  MIC: ≥ 800 µM
[27]
  MIC: ≥ 80 µM
[28]
  MIC: ≥ 1500 µM
[29]
  MIC: ≥ 1500 µM
[30]
  MIC: 940 µM (≈ 774 µg/mL)

## CC[C@H](C)[C@H](NC(=O)[C@H](CC(C)C)NC(=O)[C@@H]1CCCN1C(=O)[C@H](CC(C)C)NC(=O)[C@@H](N)Cc1ccccc1)C(=O)NCC(=O)N[C@@H](CCCCN)C(=O)N[C@@H](CC(C)C)C(=O)N[C@@H](CC(C)C)C(=O)N[C@@H](CO)C(=O)NCC(=O)N[C@@H](CC(C)C)C(=O)N[C@@H](Cc1ccc(O)cc1)C(N)=O [FLPLIGKLLSGLY]
[31]
  MIC: 20.9 µM (≈ 30 µg/mL)
[32]
  MIC: 6.97 µM (≈ 9.99 µg/mL)
[33]
  MIC: 20.9 µM (≈ 30 µg/mL)
[34]
  MIC: 20.9 µM (≈ 30 µg/mL)

## CC(C)C[C@H](NC(=O)[C@@H](NC(=O)[C@@H]1CCCN1C(=O)[C@H](C)NC(=O)[C@H](CCCCN)NC(=O)[C@H](Cc1c[nH]c2ccccc12)NC(=O)[C@H](CCC(N)=O)NC(=O)[C@@H]1CCCN1C(=O)[C@H](Cc1ccccc1)NC(=O)[C@H](Cc1ccc(O)cc1)NC(=O)[C@H](CCCCN)NC(=O)[C@H](CCCN=C(N)N)NC(=O)[C@H](C)NC(=O)[C@@H]1CCCN1C(=O)[C@H](CC(N)=O)NC(=O)[C@H](CC(C)C)NC(=O)[C@H](CC(N)=O)NC(=O)[C@H](Cc1cnc[nH]1)NC(=O)[C@H](CCCCN)NC(=O)[C@H](CCCCN)NC(=O)[C@H](CC(C)C)NC(=O)[C@H](Cc1ccccc1)NC(=O)[C@@H]1CCCN1)[C@@H](C)O)C(=O)O [PFLKKHNLNPARKYFPQWKAPTL]
[24]
  MIC: > 50 µM
[4]
  MIC: > 50 µM
[35]
  MIC: ≥ 50 µM
[36]
  MIC: ≥ 50 µM
[37]
  MIC: 25 µM (≈ 69.9 µg/mL)
[38]
  MIC: 12.5 µM (≈ 34.9 µg/mL)
[39]
  MIC: ≥ 50 µM
[40]
  MIC: > 50 µM
[41]
  MIC: 3.12 µM (≈ 8.72 µg/mL)
[42]
  MIC: ≥ 50 µM

## CC[C@H](C)[C@H](NC(=O)[C@@H](NC(=O)[C@@H]1CCCN1C(=O)[C@H](Cc1ccccc1)NC(=O)[C@@H](N)Cc1ccccc1)[C@@H](C)CC)C(=O)N[C@@H](C)C(=O)N[C@@H](CCCN=C(N)N)C(=O)N[C@@H](CC(C)C)C(=O)N[C@@H](C)C(=O)N[C@@H](C)C(=O)N[C@@H](CCCCN)C(=O)N[C@H](C(=O)N[C@H](C(=O)N1CCC[C@H]1C(=O)N[C@@H](CO)C(=O)N[C@@H](CC(C)C)C(=O)N[C@H](C(=O)N[C@@H](CS)C(=O)N[C@@H](C)C(=O)N[C@H](C(=O)N[C@H](C(=O)N[C@@H](CCCCN)C(=O)N[C@@H](CCCCN)C(=O)N[C@@H](CS)C(=O)O)[C@@H](C)O)C(C)C)C(C)C)[C@@H](C)CC)C(C)C [FFPIIARLAAKVIPSLVCAVTKKC]
[4]
  MIC: 3.46 µM (≈ 8.97 µg/mL)
[43]
  MIC: 4.24 µM (≈ 11 µg/mL)
[44]
  MIC: 3.46 µM (≈ 8.97 µg/mL)
[45]
  MIC: ≥ 35 µM
[41]
  MIC: 1.73 µM (≈ 4.48 µg/mL)
[46]
  MIC: ≥ 35 µM
